Test results: patent US20160138088A1, “OPTIMIZED PROBES AND PRIMERS AND METHODS OF USING SAME FOR THE DETECTION, SCREENING, ISOLATION AND SEQUENCING OF VANCOMYCIN RESISTANCE GENES AND VANCOMYCIN RESISTANT ENTEROCOCCI” (priority 2009, published 2016)
Several values for one entry are separate records, joined by “and”; a condition that tells them apart may be missing. Equal values may be shown once.

Tests used:
VanE phenotype (vanE) = conditions: allele vanE; cited from earlier work
VanG phenotype (vanG) = conditions: allele vanG; cited from earlier work
VanC phenotype (vanC) = conditions: allele vanC; cited from earlier work
VanB phenotype (vanB) = conditions: allele vanB; cited from earlier work
VanD phenotype (vanD) = conditions: allele vanD; cited from earlier work
VanA phenotype (vanA) = conditions: allele vanA; cited from earlier work
[1] = tested on: E. faecium (ATCC No. 5159, strain MMC4, vanA) gDNA; assay: Real-time PCR on E. faecium (vanA) gDNA; conditions: Input E. faecium (ATCC No. 5159, strain MMC4 vanA) gDNA; duplicate reactions; oligos 400 nM each
Procedure: (§1) The oligonucleotide sequences listed in Table 5 were tested for their ability to amplify their intended target sequences. About 25 μL PCRs were formulated using iQTM Supermix for qPCR (BioRad) and oligos at a final concentration of 400 nM each.
(§2) Genomic DNA isolated from E. faecium (ATCC No. 5159, strain MMC4, vanA) and E. faecalis (ATCC No. 700802, strain V583, vanB) were loaded into real-time PCRs using oligonucleotide solutions specific for vanA and vanB. The specificity of the oligonucleotide solutions was assessed by attempting to amplify E. faecalis (vanB) gDNA with vanA oligos and E. faecium (vanA) gDNA with vanB oligos. Amplification plots are illustrated in FIGS. 1 and 2, which show detection of vanA and vanB. Synthetic constructs encoding the vanA and vanB targets were amplified and compared to duplicate reactions where E. faecium (ATCC No. 5159, strain MMC4, vanA) and E. faecalis (ATCC No. 700802, strain V583, vanB) gDNA was amplified.
(§3) PCRs were run on the ABI 7500 with the following Thermal protocol: • 95° C. 5 minute, initial denaturation • 50 cycles of: • 95° C. 15 sec, denaturation, and • 60° C. 1 min, annealing/extension […]

[2] = tested on: E. faecium vanA synthetic construct; assay: Real-time PCR amplification of vanA synthetic construct; conditions: Input synthetic construct (vanA); oligos 400 nM each; ABI 7500, 50 cycles
Procedure: as §1, §2, §3

[3] = tested on: E. faecalis (ATCC No. 700802, strain V583, vanB) gDNA; assay: Real-time PCR on E. faecalis (vanB) gDNA; conditions: Input E. faecalis (ATCC No. 700802, strain V583, vanB) gDNA; duplicate reactions; oligos 400 nM each
Procedure: as §1, §2, §3

[4] = tested on: E. faecalis vanB synthetic construct; assay: Real-time PCR amplification of vanB synthetic construct; conditions: Input synthetic construct (vanB); oligos 400 nM each; ABI 7500, 50 cycles
Procedure: as §1, §2, §3

CN[C@H](CC(C)C)C(=O)N[C@H]1C(=O)N[C@@H](CC(N)=O)C(=O)N[C@H]2C(=O)N[C@H]3C(=O)N[C@H](C(=O)N[C@H](C(=O)O)c4cc(O)cc(O)c4-c4cc3ccc4O)[C@H](O)c3ccc(c(Cl)c3)Oc3cc2cc(c3O[C@@H]2O[C@H](CO)[C@@H](O)[C@H](O)[C@H]2O[C@H]2C[C@](C)(N)[C@H](O)[C@H](C)O2)Oc2ccc(cc2Cl)[C@H]1O [vancomycin]
MIC (VanE phenotype (vanE)): 16 (low) μg/mL
MIC (VanG phenotype (vanG)): 12-16 (low) μg/mL
MIC (VanC phenotype (vanC)): 2-32 (low) μg/mL
MIC (VanB phenotype (vanB)): 4-1024 (can be high) μg/mL
MIC (VanD phenotype (vanD)): 128 (moderate) μg/mL

teicoplanin
MIC (VanE phenotype (vanE)): 0.5 (sensitive) μg/mL
MIC (VanG phenotype (vanG)): 0.5 (sensitive) μg/mL
MIC (VanC phenotype (vanC)): ≦0.5 (sensitive) μg/mL
MIC (VanA phenotype (vanA)): 16-512 (high) μg/mL
MIC (VanB phenotype (vanB)): ≦0.5 (sensitive) μg/mL
MIC (VanD phenotype (vanD)): 4 (moderate) μg/mL

B1: vanA: vanA oligonucleotide solution: SEQ ID NO: 1, 2, and 5 (nucleic acid)
DNA 1: TTGTGCGGTATTGGGAAACAGT
DNA 2: TGATTTGGTCCACCTCGCCAACAACTAACGC
DNA 3: CTCGACTTCCTGATGAATACGAAAGATTC
modifications: chemistry not given here
Ct [1]: 19.67 and 19.80
Ct [2]: 23.36
Ct [3]: UND

B2: vanB: vanB oligonucleotide solution: SEQ ID NOS: 103, 108, and 66 (nucleic acid)
DNA 1: TTACCTACCCTGTCTTTGTGAA
DNA 2: CAGGTTCGTCCTTTGGCGTAACCA
DNA 3: GCTCAATTAAGATTTTTCCATCATATTGTC
modifications: chemistry not given here
Ct [4]: 24.04
Ct [1]: UND
Ct [3]: 21.85 and 21.53
